13 compounds from patent publication US8895733B2 (Novartis AG, priority 2010, dated 2014) can be followed below.

In this assay the target is T1, Nav 1.7 (Homo sapiens, UniProt Q15858).
T1 construct: expressed in transfected cells
Put plainly: Whole-cell voltage clamp electrophysiology, automated patch clamp (marker c in Table of Examples). The assay is classed as cell-based. To be noted: read-out: Nav 1.7 activity. The gist of the method:
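A voltage protocol weighted toward inactivated-state block was used to test compounds on stably expressing cells, with pulses from −65 mV holding to −10 mV test and −100 mV. Currents came from whole-cell automated patch-clamp recordings, either IonWorks Quattro or other automated instruments, usually in perforated-patch mode.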

[1] abbreviates: marker c: Automated patch clamp data.
[2] abbreviates: marker c = Automated patch clamp data.

Counter-ions that a name gives are not always drawn. Like-named read-outs stand apart in the source and are kept apart here.

T1 sequence (Q15858 whole entry): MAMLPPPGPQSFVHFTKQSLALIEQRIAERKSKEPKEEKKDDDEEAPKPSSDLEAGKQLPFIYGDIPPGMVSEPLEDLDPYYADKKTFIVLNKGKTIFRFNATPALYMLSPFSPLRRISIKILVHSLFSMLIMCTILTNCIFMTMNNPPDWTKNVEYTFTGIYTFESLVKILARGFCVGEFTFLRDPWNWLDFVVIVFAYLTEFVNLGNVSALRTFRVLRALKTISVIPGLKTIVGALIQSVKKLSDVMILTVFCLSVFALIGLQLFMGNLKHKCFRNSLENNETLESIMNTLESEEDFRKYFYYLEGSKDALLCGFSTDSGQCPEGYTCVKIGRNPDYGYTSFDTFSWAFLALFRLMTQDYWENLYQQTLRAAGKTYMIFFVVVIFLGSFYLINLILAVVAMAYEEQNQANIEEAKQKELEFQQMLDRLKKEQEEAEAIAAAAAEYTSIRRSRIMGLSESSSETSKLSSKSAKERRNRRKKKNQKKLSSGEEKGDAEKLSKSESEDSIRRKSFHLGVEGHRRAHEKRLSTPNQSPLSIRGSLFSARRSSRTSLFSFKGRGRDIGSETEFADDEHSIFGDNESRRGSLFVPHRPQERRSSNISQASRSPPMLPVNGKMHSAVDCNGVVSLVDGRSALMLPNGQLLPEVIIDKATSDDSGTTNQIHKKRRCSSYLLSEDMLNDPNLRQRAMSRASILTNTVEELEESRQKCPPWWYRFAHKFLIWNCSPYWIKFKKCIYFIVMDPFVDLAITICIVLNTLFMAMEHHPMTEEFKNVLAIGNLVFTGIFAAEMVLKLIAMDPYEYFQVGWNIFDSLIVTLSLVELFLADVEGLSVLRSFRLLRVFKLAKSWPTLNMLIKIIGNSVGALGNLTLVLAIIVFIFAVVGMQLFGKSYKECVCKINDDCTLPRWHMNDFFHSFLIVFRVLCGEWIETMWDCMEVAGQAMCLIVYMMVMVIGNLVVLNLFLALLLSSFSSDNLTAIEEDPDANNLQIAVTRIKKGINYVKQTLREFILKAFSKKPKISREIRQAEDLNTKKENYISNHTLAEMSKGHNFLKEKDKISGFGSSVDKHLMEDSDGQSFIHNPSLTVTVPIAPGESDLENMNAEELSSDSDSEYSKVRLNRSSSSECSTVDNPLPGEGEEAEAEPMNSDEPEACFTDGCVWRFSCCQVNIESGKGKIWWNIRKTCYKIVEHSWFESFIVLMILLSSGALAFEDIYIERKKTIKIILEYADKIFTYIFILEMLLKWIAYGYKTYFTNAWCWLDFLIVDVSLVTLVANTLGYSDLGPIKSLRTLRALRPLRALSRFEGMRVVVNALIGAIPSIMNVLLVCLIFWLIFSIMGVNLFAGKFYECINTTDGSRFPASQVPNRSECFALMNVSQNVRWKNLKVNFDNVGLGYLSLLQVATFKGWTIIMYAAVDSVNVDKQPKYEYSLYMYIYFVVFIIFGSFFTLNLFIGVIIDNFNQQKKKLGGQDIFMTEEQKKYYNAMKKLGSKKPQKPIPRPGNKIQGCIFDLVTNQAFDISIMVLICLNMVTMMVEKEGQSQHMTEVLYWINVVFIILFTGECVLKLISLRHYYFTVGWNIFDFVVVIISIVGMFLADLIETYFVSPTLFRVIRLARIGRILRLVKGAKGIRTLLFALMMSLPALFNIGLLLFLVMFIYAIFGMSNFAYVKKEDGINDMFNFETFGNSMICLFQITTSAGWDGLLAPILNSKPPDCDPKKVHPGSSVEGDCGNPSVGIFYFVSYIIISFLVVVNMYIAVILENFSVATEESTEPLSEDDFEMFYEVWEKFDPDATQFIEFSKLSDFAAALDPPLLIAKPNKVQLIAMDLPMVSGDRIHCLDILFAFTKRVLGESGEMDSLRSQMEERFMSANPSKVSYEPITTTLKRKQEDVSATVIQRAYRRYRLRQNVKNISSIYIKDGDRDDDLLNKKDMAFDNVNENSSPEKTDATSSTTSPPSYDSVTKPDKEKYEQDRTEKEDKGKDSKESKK

For `CCN(c1ccccc1)c1nc(N)nc(-c2noc(-c3ccc(OC)cc3)n2)n1` [Example 190, 2-N-ethyl-6-[5-(4-methoxyphenyl)-1,2,4-oxadiazol-3-yl]-2-N-phenyl-1,3,5-triazine-2,4-diamine], the IC50 under setting [1] came to 106 nM.
Take `CN(c1ccccc1)c1nc(N)nc(-c2noc(N3CC(OCC4CC4)C3)n2)n1` [Example 498, 6-{5-[3-(cyclopropylmethoxy)azetidin-1-yl]-1,2,4-oxadiazol-3-yl}-2-N-methyl-2-N-phenyl-1,3,5-triazine-2,4-diamine]: the IC50 under setting [2] was 902 nM.
For `CN(c1ccccc1)c1nc(N)nc(-c2noc([C@@H]3CCCN3)n2)n1` [Example 438, 2-N-methyl-2-N-phenyl-6-{5-[(2S)-pyrrolidin-2-yl]-1,2,4-oxadiazol-3-yl}-1,3,5-triazine-2,4-diamine hydrochloride], the IC50 under setting [2] was determined as 2090 nM.
As for `CN(c1ccccc1)c1nc(N)nc(-c2noc(C3CCC(N)CC3)n2)n1` (stereo not shown) [Example 422, 6-[5-(4-Aminocyclohexyl)-1,2,4-oxadiazol-3-yl]-2-N-methyl-2-N-phenyl-1,3,5-triazine-2,4-diamine], the IC50 under setting [2] was determined as 9430 nM.
As to `CC(C)[S+]([O-])C1CCN(c2nc(-c3nc(N)nc(N(C)c4ccccc4)n3)no2)CC1` (stereo not shown) [Example 368, 2-N-methyl-2-N-phenyl-6-{5-[4-(propane-2-sulfinyl)piperidin-1-yl]-1,2,4-oxadiazol-3-yl}-1,3,5-triazine-2,4-diamine], the IC50 under setting [2] turned out to be 6700 nM.
Take `CN(c1cccc(F)c1)c1nc(N)nc(-c2noc(-c3ccc(OCC(F)(F)F)nc3)n2)n1` [Example 407, 2-N-(3-fluorophenyl)-2-N-methyl-6-{5-[6-(2,2,2-trifluoroethoxy)pyridin-3-yl]-1,2,4-oxadiazol-3-yl}-1,3,5-triazine-2,4-diamine]: the IC50 under setting [2] turned out to be 201 nM.
`CN(c1ccccc1)c1nc(N)nc(-c2noc(-c3ncccc3N3CCOCC3)n2)n1` [Example 490, 2-N-methyl-6-{5-[3-(morpholin-4-yl)pyridin-2-yl]-1,2,4-oxadiazol-3-yl}-2-N-phenyl-1,3,5-triazine-2,4-diamine]: under setting [2], the IC50 is 464 nM.
Regarding `CN(c1ccccc1)c1nc(N)nc(-c2noc(-c3ccc(COCC(F)(F)F)o3)n2)n1` [Example 497, 2-N-methyl-2-N-phenyl-6-(5-{5-[(2,2,2-trifluoroethoxy)methyl]furan-2-yl}-1,2,4-oxadiazol-3-yl)-1,3,5-triazine-2,4-diamine], the IC50 under setting [2] was determined as 473 nM.
Regarding `CN(c1ccccc1)c1nc(N)nc(-c2noc(C3CCN(Cc4ccccc4)CC3)n2)n1` [Example 173, 6-[5-(1-Benzylpiperidin-4-yl)-1,2,4-oxadiazol-3-yl]-2-N-methyl-2-N-phenyl-1,3,5-triazine-2,4-diamine], the IC50 under setting [1] was 1000 nM.
As for `CN(c1ccccc1)c1nc(N)nc(-c2noc(-c3ccc(CN4CCCC4)nc3)n2)n1` [Example 293, 2-N-Methyl-2-N-phenyl-6-{5-[6-(pyrrolidin-1-ylmethyl)pyridin-3-yl]-1,2,4-oxadiazol-3-yl}-1,3,5-triazine-2,4-diamine], the IC50 under setting [2] worked out at 1350 nM.
Turning to `CN(c1ccccc1)c1nc(N)nc(-c2noc(-c3ccccc3F)n2)n1` [Example 124, 6-[5-(2-Fluoro-phenyl)-[1,2,4]oxadiazol-3-yl]-N-methyl-N-phenyl-[1,3,5]triazine-2,4-diamine], the IC50 under setting [1] was found to be 428 nM.
Regarding `CC(C)S(=O)(=O)N1CCC(c2nc(-c3nc(N)nc(N(C)c4ccccc4)n3)no2)CC1` [Example 171, 2-N-methyl-2-N-phenyl-6-{5-[1-(propane-2-sulfonyl)piperidin-4-yl]-1,2,4-oxadiazol-3-yl}-1,3,5-triazine-2,4-diamine], under setting [1], the IC50 is 254 nM.
In the case of `COC(=O)c1ccc(-c2nc(-c3nc(N)nc(N(C)c4ccccc4)n3)no2)cn1` [Example 279, methyl 5-(3-{4-amino-6-[methyl(phenyl)amino]-1,3,5-triazin-2-yl}-1,2,4-oxadiazol-5-yl)pyridine-2-carboxylate], the IC50 under setting [2] worked out at 444 nM.
